Laboratory results: paper PMC12866179, “Oxidized MIF is an Alzheimer’s disease drug target relaying external risk factors to tau pathology” (Cell Reports Medicine, 2025)

Columns and labels:
Akt = Akt phosphorylation (Ser473) in SH-SY5Y-tau-P301S cells, immunoblot; assay type: cell-based, human; conditions: dose-dependent and MIF-dependent
Protocol: After the protein concentration of cell lysates and homogenates had been determined using the DC Protein Assay Kit (Bio-Rad), 20 μg of each sample were dissolved in NuPAGE LDS Sample buffer (including 2% β-mercaptoethanol), boiled at 100°C for 5 min and then separated on NuPAGE Novex 4–12% Bis-Tris midi gels (Invitrogen) using NuPAGE MES SDS Running buffer (Invitrogen). Proteins were then transferred to a 0.2 μm nitrocellulose membrane (Amersham) in 24 mM Tris/192 mM glycine/20% MeOH at 400 mA for 2h using a tank blot system (Bio-Rad). In order to detect any blotting artifacts, the proteins on the membranes were visualized with Ponceau S (Sigma). The membranes were destained with PBS and then blocked with PBS/5% nonfat milk (Oxoid) for 1h at RT. Incubations with primary antibodies (diluted 1:1,000) in PBS-T were carried out overnight at 4°C. Then the membranes were washed three times with PBS-T for 10 min and afterward incubated with fluorescent secondary antibodies (IR Dye 680 or 800: Li-COR Biosciences.) diluted 1:20,000 in PBS-T for 1h at RT. Following three washing steps with PBS-T for 10 min each, the membranes were scanned using an LI-COR Odyssey CLX. Signal intensities were calculated using the Image Studio Version 2.1 software (LI-COR Biosciences). Blots were reused for staining with additional primary antibodies following the same procedure.

[1] = target: T1, recombinant wild-type MIF (Homo sapiens, UniProt P14174); assay: 15N-HSQC NMR binding to recombinant wild-type MIF
T1 construct: made in house; host or cells: E. coli BL21-(DE3)-Rosetta-pLysS, pET11a-MIF (15N/13C-labelled for NMR)
T1 sequence (P14174 2-115 limits assumed): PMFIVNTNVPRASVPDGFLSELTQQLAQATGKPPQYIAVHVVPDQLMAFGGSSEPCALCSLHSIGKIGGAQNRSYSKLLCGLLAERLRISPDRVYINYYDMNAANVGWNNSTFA
Protocol: The NMR F1-[^13C,^15N]-filtered-[^1H,^1H]-NOESY spectra for structure calculation were recorded on a 700 MHz Bruker Avance Neo spectrometer equipped with cryoprobe, and the ^15N-HSQC were recorded on a 600 MHz Bruker Avance III spectrometer equipped with cryoprobe. The filtered NOESY were recorded for MIF 1.0 mM and saturation of PAV-174, i.e., 1.0 mM of PAV-174. at 310K to reduce the rotational correlation time of the system, with two different mixing times 60 and 100ms; the free induction decay was measured for 106ms (2048 points) and the indirect dimension was set to 20ms (400 points); the signal acquisition was performed with 160 scans and the interscan delay was set to 1.5s. The ^15N-HSQC were measured at 298K with 121ms (2048 points) in the direct dimension and 53 ms (256 points) in the indirect dimension; the signal acquisition was performed through the accumulation of 16 scans and an interscan delay of 1s was applied. The cross-peaks corresponding to ligand-proteins were used to derive ligand-protein distant restraints using the initial rates of the normalized NOE intensity build-up curves.[91] […] The intermolecular distance restraints were kept semiambiguous, i.e., only the ligand signals were assigned, and the MIF- PAV-174 complex was calculated with the NMR^2 software[92] using the CYANA software for tortion angle dynamics structure calculation.

[2] = assay type: in vivo; conditions: compared with PAV-174
Protocol: Figure S5. PAV-17 4 decreases ta u phosphorylation and aggr e gat ion in vi v o. Rel a ted to […]
(A) MTD (Maximum Tol erated Dose) assessment of PAV com pounds in BALB/c mice. BALB/c mice we re dosed through int ra pe rit o ne al (IP ) ro ute at di ff e ren t doses as pe r bo dy we igh t of an ima ls an d mice we re obser ved at di ff e ren t time interval for toxic signs till 48 h, PD (Post dose) . MTD at wa s declared at NOAEL (No-obser ved-adver se-effect level) conc. of PAV […]
(B) PAV-61 7 dose- an d MIF-de pe nd en t ly reduces tau phosphorylati on (A T8) . SH-SY5Y-P301S-control or -MIF-knockdown cel ls we re treated with the indicated concentrations of PAV- […]
cel ls. The di ag ram s show the signals of AT8 normalized to total tau (HT7 ) from six (n =6) in de pe nd en t exper iments. One-wa y ANOVA (Sidak´s post-hoc)
(C) Pharmacokinetic assessment of PAV-61 7 in Sprague Da wley ra ts (S D). Ma le SD ra ts (n=4) we re dosed via three ro utes na me ly intravenous (IV )- 1 mg/kg, (IP )- 5 mg/kg an d per ora l (P O)- 5 mg/kg. Plasma concentration wa s anal yzed at di ff e ren t time intervals. Pharmacokinetic pa ra met e rs we re de t erm ine d usi ng Win No nlin . Cma x (p ea k pl asma concentration) achieved through IV wa s 12 8 ng / mL, IP wa s 36 2. 6 ng / mL an d PO wa s 15 1. 1 ng / mL at Tmax (time of pe ak concentration obser ved) 1 h, 0. 5 h an d 4 h respectively. […]

Structure (SMILES)	phosphorylation of Akt at Ser473 (Akt)	binding to recombinant wild-type MIF (15N-HSQC spectra) [1]	toxicity in mice [2]
CCc1cc(N2CCCC2)cc2[s+]c3cc(N4CCCC4)cc(C)c3nc12.[I-] [PAV-174, 3,7-Di(pyrrolidine-1-yl) 1-ethyl-9-methyl-phenothiazin-5-ium iodide]	increased	specific binding	
[I-].c1cc2nc3ccc(N4CCCC4)cc3[s+]c2cc1N1CCCC1 [PAV-617, 3,7-Di(pyrrolidine-1-yl)phenothiazine-5-ium iodide]			less toxic in mice
